In patent publication US20260158017A1, “KIF18A INHIBITOR” (WIGEN BIOMEDICINE TECHNOLOGY (SHANGHAI) CO., LTD., priority 2021, published 2026):
pIC50: −log10 of the molar value.

What follows are compounds tested against T1, Recombinant human KIF18A (1-467His-tagged) protein (Homo sapiens, UniProt Q8NI77) (assay: KIF18A enzyme assay (microtubule-stimulated ATPase activity, ADP-Glo)). Settings: 30 nM KIF18A, 75 μM ATP, 30 μg/mL pig microtubules; read-out: Inhibitory activity against KIF18A IC50.
T1 construct: Recombinant human KIF18A (1-467His-tagged) protein; His; made in house
T1 sequence (Q8NI77 1-467): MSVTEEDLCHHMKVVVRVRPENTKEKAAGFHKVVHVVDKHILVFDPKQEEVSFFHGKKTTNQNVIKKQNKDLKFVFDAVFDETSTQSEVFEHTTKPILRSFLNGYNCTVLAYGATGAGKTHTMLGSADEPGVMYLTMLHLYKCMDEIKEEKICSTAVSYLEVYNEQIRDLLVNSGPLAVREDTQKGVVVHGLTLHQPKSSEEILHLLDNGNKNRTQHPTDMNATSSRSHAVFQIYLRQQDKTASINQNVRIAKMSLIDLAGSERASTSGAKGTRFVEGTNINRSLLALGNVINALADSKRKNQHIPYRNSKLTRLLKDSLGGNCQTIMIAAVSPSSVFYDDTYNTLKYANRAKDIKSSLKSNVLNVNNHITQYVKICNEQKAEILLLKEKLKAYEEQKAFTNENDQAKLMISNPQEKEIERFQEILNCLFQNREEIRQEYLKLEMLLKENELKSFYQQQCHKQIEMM
T1 sequence (P02550 whole entry partner): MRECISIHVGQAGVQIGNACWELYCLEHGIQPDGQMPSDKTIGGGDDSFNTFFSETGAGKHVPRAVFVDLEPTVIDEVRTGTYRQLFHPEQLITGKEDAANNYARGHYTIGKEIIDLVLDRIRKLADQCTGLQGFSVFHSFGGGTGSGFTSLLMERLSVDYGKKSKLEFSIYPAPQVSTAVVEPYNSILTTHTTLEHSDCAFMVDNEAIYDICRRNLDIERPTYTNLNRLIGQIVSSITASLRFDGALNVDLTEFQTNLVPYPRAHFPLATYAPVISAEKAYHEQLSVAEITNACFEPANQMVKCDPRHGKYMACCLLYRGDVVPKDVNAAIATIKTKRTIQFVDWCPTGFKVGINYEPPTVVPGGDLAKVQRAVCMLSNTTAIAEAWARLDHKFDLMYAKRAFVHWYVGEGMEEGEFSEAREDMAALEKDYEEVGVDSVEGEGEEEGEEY
T1 sequence (P02554 whole entry partner): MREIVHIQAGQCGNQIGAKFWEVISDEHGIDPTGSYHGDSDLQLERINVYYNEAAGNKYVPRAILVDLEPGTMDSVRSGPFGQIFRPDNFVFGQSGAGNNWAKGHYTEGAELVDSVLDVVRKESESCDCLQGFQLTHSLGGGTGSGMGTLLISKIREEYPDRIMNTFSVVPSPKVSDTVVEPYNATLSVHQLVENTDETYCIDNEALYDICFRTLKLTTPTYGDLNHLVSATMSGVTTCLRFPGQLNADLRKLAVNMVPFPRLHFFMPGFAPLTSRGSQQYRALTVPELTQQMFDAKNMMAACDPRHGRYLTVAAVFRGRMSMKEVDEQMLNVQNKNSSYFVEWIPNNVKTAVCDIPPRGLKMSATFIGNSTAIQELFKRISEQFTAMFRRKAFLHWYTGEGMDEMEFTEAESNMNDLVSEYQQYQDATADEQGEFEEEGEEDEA
Type: biochemical
Description: In Vitro Assay of the Compounds of the Present Invention for Inhibiting Enzymatic Activity of KIF18A
KIF18A enzyme assay: The enzymatic activity of KIF18A after treatment with the compounds was measured by an assay of microtubule-stimulated ATPase activity. ADP generated from the ATPase reaction was measured in this assay. The compounds were serially diluted 2-fold in DMSO over a range of 22 concentration points. […] Concentrations of KIF18A protein, microtubules, and ATP in the reaction were optimized for a standardized homogenous enzyme assay using an ADP-Glo kinase/ATPase assay kit. A reaction buffer [(15 mM Tris, pH 7.5), 10 mM MgCl2, 0.01% PluronicF-68, 1 μM paclitaxel, and 30 μg/mL pig microtubules] was prepared. […] The resulting reaction mixture was incubated at room temperature for another 15 min. 5 μL of ADP-Glo reagent and 2.5 μL of the reaction mixture were mixed and the resulting mixture was incubated at room temperature for 40 min. 10 μL of ADP-Glo detection reagent was added and the mixture was incubated at room temperature for 40 min. Luminescence was read using a microplate reader and compared with that of the DMSO group, and then the inhibition percentages and IC50 values of the compounds were calculated.
C[C@@H]1CN(c2cc(NC(=O)c3ccc(NS(=O)(=O)CCO)cc3N3CCC4(CC3)CC4)ccc2[N+](=O)[O-])CCO1 [Compound 2] was tested, and the pIC50 was at least 7.00. O=C(Nc1ccc([N+](=O)[O-])c(OCCC(F)(F)F)c1)c1ccc(NS(=O)(=O)CCO)cc1N1CCC2(CC1)CC2 [Compound 5] was tested, and the pIC50 was at least 7.00. CC1(F)CCN(c2cc(NC(=O)c3ccc(NS(=O)(=O)CCO)cc3N3CCC4(CC3)CC4)ccc2[N+](=O)[O-])C1 (centres unmarked) [Compound 8] gave a pIC50 of at least 7.00. Compound O=C(Nc1ccc([N+](=O)[O-])c(N2CCC(F)CC2)c1)c1ccc(NS(=O)(=O)CCO)cc1N1CCC2(CC1)CC2 [Compound 9] has a pIC50 of at least 7.00. Work on O=C(Nc1ccc([N+](=O)[O-])c(N2CC3CC3C2)c1)c1ccc(NS(=O)(=O)CCO)cc1N1CCC2(CC1)CC2 (centres unmarked) [Compound 10] yielded a pIC50 of at least 7.00. CC(C)(CO)Nc1cc(NC(=O)c2ccc(NS(=O)(=O)CCO)cc2N2CCC3(CC2)CC3)ccc1[N+](=O)[O-] [Compound 11] was tested, and the pIC50 was at least 7.00. Compound O=C(Nc1ccc([N+](=O)[O-])c(N2CCOCC2)c1)c1ccc(NS(=O)(=O)CCO)cc1N1CCC2(CC1)CC2 [Compound 12] has a pIC50 of at least 7.00. C[C@@H](CO)S(=O)(=O)Nc1ccc(C(=O)Nc2ccc([N+](=O)[O-])c(N3CCC(F)(F)CC3)c2)c(N2CCC3(CC2)CC3)c1 [Compound 13] gave a pIC50 of at least 7.00. With C[C@H](CO)S(=O)(=O)Nc1ccc(C(=O)Nc2ccc([N+](=O)[O-])c(N3CCC(F)(F)CC3)c2)c(N2CCC3(CC2)CC3)c1 [Compound 14] the pIC50 was at least 7.00. Compound C[C@@H]1CN(c2cc(NC(=O)c3ccc(NS(=O)(=O)[C@@H](C)CO)cc3N3CCC4(CC3)CC4)ccc2[N+](=O)[O-])CCO1 [Compound 15] has a pIC50 of at least 7.00. With C[C@@H]1CN(c2cc(NC(=O)c3ccc(NS(=O)(=O)[C@H](C)CO)cc3N3CCC4(CC3)CC4)ccc2[N+](=O)[O-])CCO1 [Compound 16] the pIC50 was at least 7.00. Compound O=C(Nc1ccc([N+](=O)[O-])c(N2CCC(F)(F)CC2)c1)c1ccc(S(=O)(=O)NCCO)cc1N1CCC2(CC1)CC2 [Compound 17] has a pIC50 of at least 7.00. Compound C[C@@H]1CN(c2cc(NC(=O)c3ccc(S(=O)(=O)NCCO)cc3N3CCC4(CC3)CC4)ccc2[N+](=O)[O-])CCO1 [Compound 18] has a pIC50 of at least 7.00. In the case of C[C@H]1CN(c2cc(NC(=O)c3ccc(S(=O)(=O)NCCO)cc3N3CCC4(CC3)CC4)ccc2[N+](=O)[O-])CCO1 [Compound 19], the pIC50 was at least 7.00. For O=C(Nc1ccc([N+](=O)[O-])c(N2CC(F)(F)C2)c1)c1ccc(S(=O)(=O)NCCO)cc1N1CCC2(CC1)CC2 [Compound 20], the pIC50 was at least 7.00. O=C(Nc1ccc([N+](=O)[O-])c(OCCC(F)(F)F)c1)c1ccc(S(=O)(=O)NCCO)cc1N1CCC2(CC1)CC2 [Compound 21] showed a pIC50 of at least 7.00. Work on O=C(Nc1ccc([N+](=O)[O-])c(N2CCC3(CC3)C2)c1)c1ccc(S(=O)(=O)NCCO)cc1N1CCC2(CC1)CC2 [Compound 22] yielded a pIC50 of at least 7.00. With O=C(Nc1ccc([N+](=O)[O-])c(OC2CCC2)c1)c1ccc(S(=O)(=O)NCCO)cc1N1CCC2(CC1)CC2 [Compound 23] the pIC50 was at least 7.00. Compound CC1(F)CCN(c2cc(NC(=O)c3ccc(S(=O)(=O)NCCO)cc3N3CCC4(CC3)CC4)ccc2[N+](=O)[O-])C1 (centres unmarked) [Compound 24] has a pIC50 of at least 7.00. With O=C(Nc1ccc([N+](=O)[O-])c(N2CCC(F)CC2)c1)c1ccc(S(=O)(=O)NCCO)cc1N1CCC2(CC1)CC2 [Compound 25] the pIC50 was at least 7.00. In the case of O=C(Nc1ccc([N+](=O)[O-])c(N2CC3CC3C2)c1)c1ccc(S(=O)(=O)NCCO)cc1N1CCC2(CC1)CC2 (centres unmarked) [Compound 26], the pIC50 was at least 7.00. CC(C)(CO)Nc1cc(NC(=O)c2ccc(S(=O)(=O)NCCO)cc2N2CCC3(CC2)CC3)ccc1[N+](=O)[O-] [Compound 27] was tested, and the pIC50 was at least 7.00. Work on O=C(Nc1ccc([N+](=O)[O-])c(N2CCOCC2)c1)c1ccc(S(=O)(=O)NCCO)cc1N1CCC2(CC1)CC2 [Compound 28] yielded a pIC50 of at least 7.00. C[C@@H](CO)NS(=O)(=O)c1ccc(C(=O)Nc2ccc([N+](=O)[O-])c(N3CCC(F)(F)CC3)c2)c(N2CCC3(CC2)CC3)c1 [Compound 29] was tested, and the pIC50 was at least 7.00. For C[C@H](CO)NS(=O)(=O)c1ccc(C(=O)Nc2ccc([N+](=O)[O-])c(N3CCC(F)(F)CC3)c2)c(N2CCC3(CC2)CC3)c1 [Compound 30], the pIC50 was at least 7.00. Compound C[C@@H]1CN(c2cc(NC(=O)c3ccc(S(=O)(=O)N[C@@H](C)CO)cc3N3CCC4(CC3)CC4)ccc2[N+](=O)[O-])CCO1 [Compound 31] has a pIC50 of at least 7.00. Compound C[C@H](CO)NS(=O)(=O)c1ccc(C(=O)Nc2ccc([N+](=O)[O-])c(N3CCO[C@H](C)C3)c2)c(N2CCC3(CC2)CC3)c1 [Compound 32] has a pIC50 of at least 7.00. Compound O=C(Nc1ccc(NS(=O)(=O)CCO)cc1N1CCC2(CC1)CC2)c1ccc([N+](=O)[O-])c(N2CCC(F)(F)CC2)c1 [Compound 33] has a pIC50 of at least 7.00. C[C@@H]1CN(c2cc(C(=O)Nc3ccc(NS(=O)(=O)CCO)cc3N3CCC4(CC3)CC4)ccc2[N+](=O)[O-])CCO1 [Compound 34] showed a pIC50 of at least 7.00. In the case of C[C@H]1CN(c2cc(C(=O)Nc3ccc(NS(=O)(=O)CCO)cc3N3CCC4(CC3)CC4)ccc2[N+](=O)[O-])CCO1 [Compound 35], the pIC50 was 6.30 to 7.00. O=C(Nc1ccc(NS(=O)(=O)CCO)cc1N1CCC2(CC1)CC2)c1ccc([N+](=O)[O-])c(N2CC(F)(F)C2)c1 [Compound 36] gave a pIC50 of at least 7.00. O=C(Nc1ccc(NS(=O)(=O)CCO)cc1N1CCC2(CC1)CC2)c1ccc([N+](=O)[O-])c(OCCC(F)(F)F)c1 [Compound 37] showed a pIC50 of at least 7.00. O=C(Nc1ccc(NS(=O)(=O)CCO)cc1N1CCC2(CC1)CC2)c1ccc([N+](=O)[O-])c(N2CCC3(CC3)C2)c1 [Compound 38] showed a pIC50 of at least 7.00. Work on O=C(Nc1ccc(NS(=O)(=O)CCO)cc1N1CCC2(CC1)CC2)c1ccc([N+](=O)[O-])c(OC2CCC2)c1 [Compound 39] yielded a pIC50 of at least 7.00. With CC1(F)CCN(c2cc(C(=O)Nc3ccc(NS(=O)(=O)CCO)cc3N3CCC4(CC3)CC4)ccc2[N+](=O)[O-])C1 (centres unmarked) [Compound 40] the pIC50 was at least 7.00. In the case of O=C(Nc1ccc(NS(=O)(=O)CCO)cc1N1CCC2(CC1)CC2)c1ccc([N+](=O)[O-])c(N2CCC(F)CC2)c1 [Compound 41], the pIC50 was at least 7.00. With O=C(Nc1ccc(NS(=O)(=O)CCO)cc1N1CCC2(CC1)CC2)c1ccc([N+](=O)[O-])c(N2CC3CC3C2)c1 (centres unmarked) [Compound 42] the pIC50 was at least 7.00. CC(C)(CO)Nc1cc(C(=O)Nc2ccc(NS(=O)(=O)CCO)cc2N2CCC3(CC2)CC3)ccc1[N+](=O)[O-] [Compound 43] gave a pIC50 of at least 7.00. O=C(Nc1ccc(NS(=O)(=O)CCO)cc1N1CCC2(CC1)CC2)c1ccc([N+](=O)[O-])c(N2CCOCC2)c1 [Compound 44] gave a pIC50 of at least 7.00. Work on C[C@@H](CO)S(=O)(=O)Nc1ccc(NC(=O)c2ccc([N+](=O)[O-])c(N3CCC(F)(F)CC3)c2)c(N2CCC3(CC2)CC3)c1 [Compound 45] yielded a pIC50 of 6.30 to 7.00. For C[C@H](CO)S(=O)(=O)Nc1ccc(NC(=O)c2ccc([N+](=O)[O-])c(N3CCC(F)(F)CC3)c2)c(N2CCC3(CC2)CC3)c1 [Compound 46], the pIC50 was 6.30 to 7.00. C[C@@H]1CN(c2cc(C(=O)Nc3ccc(NS(=O)(=O)[C@@H](C)CO)cc3N3CCC4(CC3)CC4)ccc2[N+](=O)[O-])CCO1 [Compound 47] gave a pIC50 of 6.30 to 7.00. With C[C@@H]1CN(c2cc(C(=O)Nc3ccc(NS(=O)(=O)[C@H](C)CO)cc3N3CCC4(CC3)CC4)ccc2[N+](=O)[O-])CCO1 [Compound 48] the pIC50 was 6.30 to 7.00. O=C(Nc1ccc(S(=O)(=O)NCCO)cc1N1CCC2(CC1)CC2)c1ccc([N+](=O)[O-])c(N2CCC(F)(F)CC2)c1 [Compound 49] gave a pIC50 of 6.30 to 7.00.
